# Marks after values point to notes of the source that are not given here.
# How the values were obtained:
# [1] = biological target: T1, α-glucosidase (Saccharomyces cerevisiae, UniProt P53341); assay: α-glucosidase inhibitory activity test in vitro; assay type: biochemical; conditions: read-out: α-glucosidase inhibitory activity (IC50)
# T1 construct: purchased Sigma Corporation G5003
# Experimental: Add 25 μL α-glucosidase water solution (0.2 U/mL) and 175 μL phosphate buffer (50 mM, pH 7.0) into 25 μL different concentration of the above test solutions. The mixed solution is standed for 10 min at room temperature, and then 25 μL 4-nitrophenyl-α-D-glucopyranoside water solution (2.5 mM) is added into the mixed solution. After the solution is incubated at 37 °C for 30 min and centrifuged at 5000 rpm for 5 minutes, 150 uL supernatant is added into 96-well plates and the absorbance is detected at 405 nm.
# Blank group: the test solution is replaced by 25 μL phosphate buffer (50 mM, pH 7.0); blank control group: the test solution is replaced by 25 μL phosphate buffer (50 mM, pH 7.0), meanwhile α-glucosidase water solution is replaced by 25 μL phosphate buffer (50 mM, pH 7.0); sample control group: α-glucosidase water solution is replaced by 25 μL phosphate buffer (50 mM, pH 7.0).
# (§1) Repeat each of the above experiment groups for 3 times, and then average the results.
# IC50=[CL(IH−50)+CH(50−IL)]/(IH−IL) CL: low concentration value; CH: high concentration value; IH: inhibition rate in high concentration; IL: inhibition rate in low concentration
# [2] = biological target: T2, dipeptidyl peptidase-4 (Homo sapiens, UniProt P27487); assay: dipeptidyl peptidase-4 inhibitory activity test in vitro (DPP-4 inhibitor screening kit); assay type: biochemical
# T2 construct: purchased
# Description: The above compounds are detected by DPP-4 inhibitor screening kit.
# [3] = biological target: aldose reductase (Homo sapiens, UniProt P15121); assay: aldose reductase inhibitory activity test in vitro; assay type: biochemical
# Experimental: Experimental procedure: the following reagents are added into 96-well plates in sequence and the mixture ratios of different groups are as followings:
# Test group: 10 μL compound solution+25 μL (0.1 mM) NADPH solution+25 μL PBS buffer solution+15 μL aldose reductase diluent
# Blank group: 25 μL (0.1 mM) NADPH solution+35 μL PBS buffer solution+15 μL aldose reductase diluent
# Background group: 25 μL (0.1 mM) NADPH solution+60 μL PBS buffer solution+15 μL aldose reductase diluent
# After adding the reagents, the 96-well plate is standed for 10 min at room temperature to make the compound and the enzyme react completely. Add 25 μL 10 mM D, L glyceraldehyde solution which is used as substrate into the groups except for background group, and incubate the solution at 37 °C for 30 min. Then detect the optical density of each well at 340 nm.
# [4] = tested on: hyperglycemia mice induced by alloxan; assay: blood sugar of hyperglycemia mice induced by alloxan; assay type: in vivo, Kunming species mice
# Experimental: Blood glucose determination kit (batch number 20140403) is purchased from Nanjing Jiancheng Bioengineering Institute. Methods: after being acclimatized for 1 week, 10 randomly selected Kunming species male mice of SPF level of 20±2 g are used as control group, while the other 50 mice are given alloxan to make model by intraperitoneal injection according to body weight 220 mg/kg.
# [5] = biological target: T3, protein tyrosine phosphatase 1B (PTP-1B) (Homo sapiens, UniProt P18031); assay: PTP-1B inhibitory activity test in vitro; assay type: biochemical
# T3 sequence (P18031 1-435): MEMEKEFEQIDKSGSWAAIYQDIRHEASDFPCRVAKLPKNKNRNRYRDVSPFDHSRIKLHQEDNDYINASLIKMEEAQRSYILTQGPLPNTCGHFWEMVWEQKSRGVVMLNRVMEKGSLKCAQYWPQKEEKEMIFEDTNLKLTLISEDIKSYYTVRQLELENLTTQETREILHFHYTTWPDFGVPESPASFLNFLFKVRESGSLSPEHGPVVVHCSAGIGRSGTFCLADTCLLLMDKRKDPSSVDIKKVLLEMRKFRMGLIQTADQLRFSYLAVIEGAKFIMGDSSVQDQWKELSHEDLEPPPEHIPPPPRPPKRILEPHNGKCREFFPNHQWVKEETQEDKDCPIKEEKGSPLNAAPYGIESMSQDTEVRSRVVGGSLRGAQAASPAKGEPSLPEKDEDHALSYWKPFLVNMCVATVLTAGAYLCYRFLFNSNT
# Experimental: Experimental procedure: the following reagents are added into 96-well plates in sequence and the mixture ratios of different groups are as followings: Test group: 50 μL compound solution+50 μL 170 μg/mL PTP-1B solution […] Blank group: 50 μL buffer solution+50 μL 170 μg/mL PTP-1B solution Background group: 50 μL compound solution+50 μL buffer solution After adding the reagents, the 96-well plate is […] for 10 min at room temperature to make the compound and the enzyme react completely. Add 50 μL 1 mM pNPP solution which is used as substrate and incubate the mixed solution at 37 °C for 30 min. Then add 50 μL 3M NaOH into each well of the plate to stop the reaction and the optical density is detected at […].
# [6] = biological target: T4, HMG-CoA reductase (Homo sapiens, UniProt P04035); assay: HMG-CoA reductase inhibitory activity test in vitro; assay type: biochemical
# T4 sequence (P04035 426-888 limits assumed): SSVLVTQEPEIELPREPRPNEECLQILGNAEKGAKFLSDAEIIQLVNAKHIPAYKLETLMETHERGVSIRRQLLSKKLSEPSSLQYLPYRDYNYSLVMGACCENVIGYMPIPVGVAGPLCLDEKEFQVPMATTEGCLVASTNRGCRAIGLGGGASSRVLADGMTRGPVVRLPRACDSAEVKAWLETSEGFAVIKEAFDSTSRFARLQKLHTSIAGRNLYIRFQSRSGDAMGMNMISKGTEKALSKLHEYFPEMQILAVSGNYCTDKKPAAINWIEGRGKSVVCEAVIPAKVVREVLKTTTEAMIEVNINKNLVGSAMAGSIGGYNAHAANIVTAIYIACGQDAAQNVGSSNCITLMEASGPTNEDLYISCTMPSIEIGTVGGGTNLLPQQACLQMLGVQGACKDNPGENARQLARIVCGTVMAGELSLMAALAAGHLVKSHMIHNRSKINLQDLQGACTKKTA
# Experimental: Add 25 μL HMG-CoA reductase water solution (0.2 U/mL), 25 μL NADPH water solution (0.2 U/mL) and 24 μL phosphate buffer (50 mM, pH 7.0) into 1 μL different concentration of the above test solution. The mixed solution is standed for 10 min at room temperature, and then 25 μL HMG-CoA is added into the mixed solution. After the solution is incubated at 37∞ for 30 min and centrifuged at 5000 rpm for 5 minutes, 80 uL supernatant is added into 96-well plates and the absorbance is detected at 550 nm.
# as §1
# [7] = tested on: hyperglycemia KK-A^y mice; assay: blood lipid and liver function of hyperglycemia KK-A^y mice; assay type: in vivo; conditions: 3 weeks, metformin 8 g/kg, group 11
# Experimental: (§2) Materials: accurately weigh the 2 compounds S13 and S28 discussed in example 2, and then add 0.5% CMC-Na to make the solution of 5 mg/ml used for activity test. KK-A^y mice are purchased from Chinese Academy of Medical Sciences & Peking Union Medical College Institute of Animal Studies. Experiments are carried out after adapting to the environment (T=20-24° C., constant humidity: 50-60%, 12 hours light exposure (8:00-20:00), soundproof, free feeding and drinking) for 1 week. Glucometer is purchased from Roche.
# (§3) Methods: 10 male C57 mice of 6-8 weeks of 20-22 g are used as normal control group (1). Detect the fasting glucose of male KK-A^y mice, which are 6-8 weeks with the weight of 28-32 g, and divide them into different groups according to the blood sugar level and body weight: (2) model control group, (3) which is administered by compound S13 with the dose of 1 mg/kg, (4) which is administered by compound S13 with the dose of 5 mg/kg, (5) which is administered by compound S13 with the dose of 10 mg/kg, (6) which is administered by compound S13 with the dose of 20 mg/kg, (7) which is administered by compound S28 with the dose of 1 mg/kg, (8) which is administered by compound S28 with the dose of 5 mg/kg, (9) which is administered by compound S28 with the dose of 10 mg/kg, (10) which is administered by compound S28 with the dose of 20 mg/kg, (11) which is administered by metformin with the dose of 8 g/kg, (12) which is administered by compound S13 with the dose of 2.5 mg/kg and metformin with the dose of 4 g/kg, (13) which is administered by compound S13 with the dose of 5 mg/kg and metformin with the dose of 4 g/kg, (14) which is administered by compound S28 with the dose of 2.5 mg/kg and metformin with the dose of […], (15) which is administered by compound S28 with the dose of 5 mg/kg and metformin with the dose of […]. Each group has 8 mice, and is administrated successively for 3 weeks. Model control group is given with equal amounts of 0.5% CMC-Na.
# 4) After the last administration, the mice are executed under anesthesia, and blood is taken to be centrifuged at 3000 rpm in 4[…]. Serum total cholesterol, low density lipoprotein and triglyceride TG are detected.
# [8] = body weight of hyperglycemia KK-A^y mice; assay type: in vivo; conditions: metformin 8 g/kg, group 11
# Experimental: as §2, §3
# (§4) 2) Effects on body weight and blood sugar: the body weight of mice are recorded at the 2th, 5th, 8th, 11th, 14th, 17th, 20th day after administration, and blood is collected from tip of tail to detect the blood sugar level (see table 10).
# [9] = tested on: hyperglycemia KK-A^y mice; assay: blood sugar of hyperglycemia KK-A^y mice; assay type: in vivo; design: blood sugar: unit not given here; conditions: metformin 8 g/kg, group 11
# Experimental: as §2, §3
# 1) Effects of drugs on blood sugar: at the first day after administration, the mice are fasted for 2 hours and blood is collected (0 h) to detect the fasting blood sugar. After the compound is given to the mice by intragastric administration for 30 min, blood is collected from tip of tail to detect the blood sugar level.
# as §4
# [10] = tested on: hyperglycemia KK-A^y mice; assay: glucose tolerance test (OGTT) in hyperglycemia KK-A^y mice; assay type: in vivo; conditions: OGTT 12th day, glucose 2.0 g/kg oral, metformin 8 g/kg, group 11
# Experimental: as §2, with “KK-A^y” for “Materials: accurately weigh the 2 compounds S13 and S28 discussed in example 2, and then add 0.5% CMC-Na to make the solution of 5 mg/ml used for activity test. KK-A^y”
# Each group has 8 mice, and is administrated successively for 3 weeks. Model control group is given with equal amounts of 0.5% CMC-Na.
# 3) Glucose tolerance test (OGTT): glucose tolerance is detected at the 12th day after administration. The mice are fasted for 12 hours and blood is collected (0 h). After being given with glucose (2.0 g/kg) by oral administration, blood is collected from tip of tail to detect the blood sugar level after 30 min, 60 min and 120 min respectively (see table 11).
# T1 sequence (P53341 whole entry): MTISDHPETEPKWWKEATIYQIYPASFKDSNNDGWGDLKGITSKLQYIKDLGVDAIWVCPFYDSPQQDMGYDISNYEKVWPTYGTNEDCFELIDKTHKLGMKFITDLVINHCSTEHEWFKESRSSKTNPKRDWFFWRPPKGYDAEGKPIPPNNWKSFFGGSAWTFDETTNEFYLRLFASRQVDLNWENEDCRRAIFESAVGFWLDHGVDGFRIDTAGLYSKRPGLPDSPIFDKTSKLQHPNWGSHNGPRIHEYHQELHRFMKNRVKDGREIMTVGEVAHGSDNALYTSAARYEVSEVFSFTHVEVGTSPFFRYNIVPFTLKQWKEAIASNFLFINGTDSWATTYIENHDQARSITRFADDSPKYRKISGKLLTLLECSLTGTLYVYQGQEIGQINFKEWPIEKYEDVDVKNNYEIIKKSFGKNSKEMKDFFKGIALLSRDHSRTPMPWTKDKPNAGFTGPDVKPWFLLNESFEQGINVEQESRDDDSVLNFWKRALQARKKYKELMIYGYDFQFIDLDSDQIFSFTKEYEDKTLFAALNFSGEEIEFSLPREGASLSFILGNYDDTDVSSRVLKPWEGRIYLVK
# T2 sequence (P27487 whole entry, species assumed): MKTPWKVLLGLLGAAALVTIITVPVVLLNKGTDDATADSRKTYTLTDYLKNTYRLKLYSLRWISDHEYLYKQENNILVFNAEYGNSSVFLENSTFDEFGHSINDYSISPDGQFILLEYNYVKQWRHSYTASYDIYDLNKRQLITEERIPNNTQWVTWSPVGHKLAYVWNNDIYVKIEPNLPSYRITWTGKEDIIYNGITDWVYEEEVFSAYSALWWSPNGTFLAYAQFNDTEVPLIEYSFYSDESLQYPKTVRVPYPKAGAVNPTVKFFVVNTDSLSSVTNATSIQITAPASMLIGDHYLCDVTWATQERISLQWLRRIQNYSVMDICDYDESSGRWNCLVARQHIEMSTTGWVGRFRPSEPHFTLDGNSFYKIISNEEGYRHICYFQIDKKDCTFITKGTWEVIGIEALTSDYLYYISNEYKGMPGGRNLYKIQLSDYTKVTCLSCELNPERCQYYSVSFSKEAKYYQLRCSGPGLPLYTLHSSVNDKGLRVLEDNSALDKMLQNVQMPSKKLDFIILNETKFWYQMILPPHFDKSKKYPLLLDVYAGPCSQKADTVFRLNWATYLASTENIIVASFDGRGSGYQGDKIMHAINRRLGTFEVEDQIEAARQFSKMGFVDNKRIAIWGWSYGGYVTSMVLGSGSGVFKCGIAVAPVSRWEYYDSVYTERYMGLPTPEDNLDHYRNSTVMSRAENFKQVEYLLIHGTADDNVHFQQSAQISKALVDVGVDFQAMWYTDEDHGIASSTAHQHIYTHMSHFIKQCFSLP
structure (smiles),measurement,setting,value
"CC(C)=CCC/C(C)=C/CCC1=C[C@@H](c2ccccc2)OC1=O [S16, (S,E)-3-(4,8-dimethylnona-3,7-dien-1-yl)-5-phenylfuran-2(5H)-one]",IC50,[1],0.23 µM
same,IC50,[2],12 µM
same,IC50,[3],58.2 µM
same,blood sugar after administration,"[4]; 50 mg/kg intragastric, 10 days, fasted 10 hours",6.12** mmol/L
same,blood sugar before administration,[4]; before administration,15.25 mmol/L
same,IC50,[5],12.5 µM
same,IC50,[6],3.6 µM
"CN(C)C(=N)N=C(N)N [metformin, reference compound]",ALT,[7],89.6 U/L
same,AST,[7],137.5 U/L
same,HDL-C,[7],23.1 mg/dL
same,LDL-C,[7],72 mg/dL
same,SOD,[7],3.7 U/L
same,TC,[7],176* mg/dL
same,TG,[7],578 mg/dL
same,Body weight,[8]; 2st day,30.7 g
same,Body weight,[8]; 5st day,30.53 g
same,Body weight,[8]; 8st day,30.8 g
same,Body weight,[8]; 11st day,30.6 g
same,Body weight,[8]; 14st day,30.7 g
same,Body weight,[8]; 17st day,30.8 g
same,Body weight,[8]; 20st day,30.5 g
same,"blood sugar at the 1st day, 0",[9]; 1st day 0 h,14.9
same,"blood sugar at the 1st day, 30 min",[9]; 1st day 30 min after intragastric administration,9.85
same,blood sugar,[9]; 2st day,13.05
same,blood sugar,[9]; 5st day,13.9
same,blood sugar,[9]; 8st day,13.8
same,blood sugar,[9]; 11st day,13.5
same,blood sugar,[9]; 14st day,13.7
same,blood sugar,[9]; 17st day,13.5
same,blood sugar,[9]; 20st day,13.24
same,"glucose tolerance, blood sugar 0 min",[10]; 0 min,6.5**
same,"glucose tolerance, blood sugar 30 min",[10]; 30 min,12.8**
same,"glucose tolerance, blood sugar 60 min",[10]; 60 min,10.47**
same,"glucose tolerance, blood sugar 120 min",[10]; 120 min,7.41**

# From patent US10441562B2, “Aromatic farnesyl compound and application thereof” (INSTITUTE OF MICROBIOLOGY, CHINESE ACADEMY OF SCIENCES, priority 2015, dated 2019)
